Patent US8080404B1, “Enzymatic decontamination” (priority 2005, dated 2011)

Tested on: Bacillus anthracis NNR1Δ1 spores
Type: cell-based

## octyl phenol ethoxylate [triton X-100]
  spore kill efficiency with surfactant: most efficient formulation for spore inactivation

## CC(=O)Oc1ccccc1C(=O)O [acetylsalicylic acid]
  efficiency of spore killing with acetyl donor: increasing concentrations of acetylsalicylic acid resulted in increased efficiency of spore killing

## CC(=O)O [acetic acid]
  kill rate with acetyl donor: enhanced the kill rate to about the same degree as did 0.125% acetylsalicylic acid

## CCCCCCCCCCCC[N+](C)(C)CCCS(=O)(=O)[O-] [3-(dodecyldimethylamino) propane sulfonate]
  promotion of spore killing by zwitterionic surfactant: most efficient at promoting spore killing
